Data set [1] addresses T1, Rat2 fibroblasts stably transformed with v-Src/Hu Lck fusion gene (Homo sapiens, UniProt P06239, cells depend on it, form not given).
T1 construct: Candidates are e.g. Schmidt-Ruppin A (P00524) or Prague C (P00526); The human Lck catalytic domain stands in place of the v-Src catalytic domain
In words: Anchorage independent Lck-transformed fibroblast proliferation assay. The class given is cell-based, rat. The conditions noted are these: Table 3; read-out: Lck Cells IC50. The essentials:
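Rat2 fibroblasts expressing a CMV-driven v-Src/human Lck catalytic-domain fusion grown in suspension on ultra-low attachment plates, 10,000 cells/well. Compound added Day 2 as two-fold dilutions from 10 to 0.009 micromolar; MTS added Day 5, absorbance read at 490 nm. IC50 derived from blank-corrected % of no-compound control.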

Data set [2] has as its target T2, Recombinant human Src enzyme (Homo sapiens, UniProt P12931).
T2 construct: purchased PanVera P3044
Put plainly: Src kinase assay (LANCE FRET). The class given is biochemical. The conditions noted are these: Table 3; 100 μM ATP, biotinylated Cdk1 peptide substrate. As for the experimental part:
Recombinant human Src enzyme was obtained from PanVera (P3044). […] Homogeneous fluorescence resonance energy transfer kinase assays were performed using the europium/APC detection format (LANCE, Perkin Elmer). Src enzyme (10 ng) was mixed with biotinylated peptide (final concentration 2 μM), 50 mM Hepes (pH 7.5), 10 mM MgCl2, 20 μg/ml BSA, 0.001% Brij-35 (sigma), 100 μM ATP, 1% DMSO. The kinase reaction was incubated for 70 min at 37° C. The reaction was stopped with EDTA at a final concentration of 30 mM EDTA/25 mM Hepes (pH 7.5)/10 μg/ml BSA. The mixture was combined with Eu-labeled anti-phosphotyrosine antibody PT66 (Perkin Elmer, AD0068) and Streptavidin Surelight-APC (Perkin Elmer, CR130-100) in 50 mM Hepes (pH 7.5)/20 μg/ml BSA, and incubated for 30 min according to manufacturer's specifications. […] Multiple entries for a given compound indicate that it was tested multiple times.

Data set [3] has as its system Rat2 fibroblasts stably transformed with v-Src/Hu c-Src fusion gene. Put plainly: Anchorage independent Src-transformed fibroblast proliferation assay. The class given is cell-based, rat. As for the experimental part: Anchorage Independent Src-Transformed Fibroblast Proliferation Assay Rat2 fibroblasts stably transformed with a plasmid containing a CMV promotor controlled v-Src/Hu c-Src fusion gene in which the catalytic domain of human c-Src was inserted in place of the v-Src catalytic domain in the v-Src gene are used for the measurement of src dependent suspension growth. […] Multiple entries for a given compound indicate that it was tested multiple times.

Where [4] appears, read: Rattus norvegicus, Rat2, Table 3, read-out: Src Cells IC50 μM or % inhib at 10 μM (IC50 values).
The mark [5] stands for this setting: Table 3, read-out: Src Cells IC50 μM or % inhib at 10 μM (IC50 values).
The mark [6] stands for this setting: Rattus norvegicus, Rat2, read-out: Src Cells IC50 μM or % inhib at 10 μM (IC50 values), Table 3.
Setting [7] is: read-out: Src Cells IC50 μM or % inhib at 10 μM (IC50 values), Table 3.

The term IC50 denotes the midpoint of a concentration-inhibition curve. The melting point is the temperature of the solid-liquid transition.

Where “and” joins values, the source holds several entries; their conditions need not be identical. Equal entries are not always repeated. Where two headings read alike, the source gives them in different places.

T2 sequence (P12931 whole entry): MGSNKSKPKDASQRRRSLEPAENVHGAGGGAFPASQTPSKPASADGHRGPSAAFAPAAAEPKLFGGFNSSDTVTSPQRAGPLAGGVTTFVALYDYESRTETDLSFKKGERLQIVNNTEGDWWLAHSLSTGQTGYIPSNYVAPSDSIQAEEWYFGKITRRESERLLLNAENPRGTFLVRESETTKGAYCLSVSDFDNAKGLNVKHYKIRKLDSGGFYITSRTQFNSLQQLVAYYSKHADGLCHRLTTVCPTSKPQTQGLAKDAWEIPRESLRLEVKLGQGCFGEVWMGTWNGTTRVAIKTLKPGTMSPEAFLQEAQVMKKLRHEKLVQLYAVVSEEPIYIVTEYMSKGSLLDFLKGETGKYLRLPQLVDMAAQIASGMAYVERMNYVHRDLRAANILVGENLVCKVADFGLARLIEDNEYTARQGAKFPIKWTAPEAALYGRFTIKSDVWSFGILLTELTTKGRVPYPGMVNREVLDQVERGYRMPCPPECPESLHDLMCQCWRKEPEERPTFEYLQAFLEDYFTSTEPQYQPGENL
T1 sequence (P06239 whole entry, change not shown, the tested form may be a part): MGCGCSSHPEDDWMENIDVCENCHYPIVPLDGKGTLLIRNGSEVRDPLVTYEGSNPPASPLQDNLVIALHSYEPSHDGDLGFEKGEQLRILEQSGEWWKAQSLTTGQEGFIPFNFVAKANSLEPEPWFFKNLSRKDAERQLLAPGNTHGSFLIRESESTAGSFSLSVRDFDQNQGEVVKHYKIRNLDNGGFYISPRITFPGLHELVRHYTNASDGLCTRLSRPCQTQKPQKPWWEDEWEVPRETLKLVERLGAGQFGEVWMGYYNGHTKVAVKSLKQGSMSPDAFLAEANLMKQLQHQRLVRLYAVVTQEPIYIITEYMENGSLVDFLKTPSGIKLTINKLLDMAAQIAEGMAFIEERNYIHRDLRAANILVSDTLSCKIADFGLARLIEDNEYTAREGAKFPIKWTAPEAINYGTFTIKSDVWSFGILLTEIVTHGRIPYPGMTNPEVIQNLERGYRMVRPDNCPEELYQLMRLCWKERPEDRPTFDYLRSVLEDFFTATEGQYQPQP

`COc1cc(Nc2c(C#N)cnc3cc(-c4cccc(CN(C)C)c4)sc23)c(Cl)cc1Cl` [Example 75, 7-[(2,4-dichloro-5-methoxyphenyl)amino]-2-{3-[(dimethylamino)methyl]phenyl}thieno[3,2-b]pyridine-6-carbonitrile] gave a melting point of 204 to 206 °C. In addition, the GI50 in data set [1] was 320 nM and 270 nM. Besides, in data set [2], the IC50 was 26.3 nM and 34.7 nM. Moreover, the IC50 in data set [3] (setting [4]) turned out to be 1.5 µM. In data set [3] (setting [5]), the IC50 was determined as 0.97 µM.
The compound `CCOc1cc(Nc2c(C#N)cnc3cc(-c4ccc(CN5CCN(C)CC5)cc4)sc23)c(Cl)cc1Cl` [Example 123, 7-[(2,4-dichloro-5-ethoxyphenyl)amino]-2-{4-[(4-methylpiperazin-1-yl)methyl]phenyl}thieno[3,2-b]pyridine-6-carbonitrile] gave a melting point of 227 to 229 °C. In data set [1], the GI50 is 3230 nM and 4690 nM. Further, the IC50 in data set [2] was 943 nM and 1020 nM. Besides, the IC50 in data set [3] (setting [6]) is over 10 µM.
As for `CCN1CCN(Cc2ccc(-c3cc4ncc(C#N)c(Nc5cc(OC)c(Cl)cc5Cl)c4s3)cc2)CC1` [Example 70, 7-[(2,4-dichloro-5-methoxyphenyl)amino]-2-{4-[(4-ethylpiperazin-1-yl)methyl]phenyl}thieno[3,2-b]pyridine-6-carbonitrile], the melting point was in the range of 198 to 200 °C. Moreover, the GI50 in data set [1] was 120 nM and 110 nM. In addition, the IC50 in data set [2] was 7.3 nM and 9.2 nM. Besides, the half-maximal inhibitory concentration (IC50) in data set [3] (setting [6]) worked out at 0.68 µM. For the same compound, the IC50 in data set [3] (setting [7]) was 0.58 µM.
As for `COc1cc(Nc2c(C#N)cnc3cc(-c4ccsc4CN4CCN(C)CC4)sc23)c(Cl)cc1Cl` [Example 84, 7-[(2,4-dichloro-5-methoxyphenyl)amino]-2-{2-[(4-methylpiperazin-1-yl)methyl]thien-3-yl}thieno[3,2-b]pyridine-6-carbonitrile], the melting point was 218 to 219 °C. The GI50 in data set [1] is 3400 nM. The IC50 in data set [2] is 320 nM and 580 nM and 347 nM. Besides, the concentration for half-maximal inhibition (IC50) in data set [3] (setting [6]) is 3.3 µM.
`COc1cc(Nc2c(C#N)cnc3cc(-c4ccc(CCN(C)C)cc4)sc23)c(Cl)cc1Cl` [Example 134, 7-[(2,4-dichloro-5-methoxyphenyl)amino]-2-{4-[2-(dimethylamino)ethyl]phenyl}thieno[3,2-b]pyridine-6-carbonitrile] gave a melting point of 196 to 197 °C. Moreover, the GI50 in data set [1] is 130 nM and 170 nM. Moreover, the IC50 in data set [2] is 7.6 nM and 10 nM. In addition, the IC50 in data set [3] (setting [6]) was 0.505 µM. The IC50 in data set [3] (setting [7]) amounted to 0.337 µM.
For `COc1cc(Nc2c(C#N)cnc3cc(-c4ccc(CNCCSC)cc4)sc23)c(Cl)cc1Cl` [Example 93, 7-[(2,4-dichloro-5-methoxyphenyl)amino]-2-[4-({[2-(methylthio)ethyl]amino}methyl)phenyl]thieno[3,2-b]pyridine-6-carbonitrile], the melting point is 154 to 156 °C. Further, the GI50 in data set [1] was 341 nM and 276 nM. Moreover, the IC50 in data set [2] was 15 nM and 16 nM. In addition, in data set [3] (setting [4]), the IC50 was 1.22 µM. Also, the IC50 in data set [3] (setting [5]) was 0.638 µM.
In the case of `COCCNCc1ccc(-c2cc3ncc(C#N)c(Nc4cc(OC)c(Cl)cc4Cl)c3s2)cc1` [Example 92, 7-[(2,4-dichloro-5-methoxyphenyl)amino]-2-(4-{[(2-methoxyethyl)amino]methyl}phenyl)thieno[3,2-b]pyridine-6-carbonitrile], the melting point lay within 162 to 164 °C. Besides, the GI50 in data set [1] is 145 nM and 103 nM. Also, the IC50 in data set [2] was 8.8 nM and 11 nM. Also, the IC50 in data set [3] (setting [4]) is 0.829 µM. Moreover, in data set [3] (setting [5]), the concentration for half-maximal inhibition (IC50) is 0.486 µM.
For `COc1cc(Nc2c(C#N)cnc3cc(-c4ccc(CN5CCSCC5)cc4)sc23)c(Cl)cc1Cl` [Example 94, 7-[(2,4-dichloro-5-methoxyphenyl)amino]-2-[4-(thiomorpholin-4-ylmethyl)phenyl]thieno[3,2-b]pyridine-6-carbonitrile], the melting point fell in the range of 198 to 201 °C. The GI50 in data set [1] is 932 nM and 907 nM and 1170 nM. In addition, the IC50 in data set [2] is 58 nM and 46 nM. For the same compound, the IC50 in data set [3] (setting [6]) came out at 5.52 µM. In addition, in data set [3] (setting [7]), the IC50 is 2.92 µM and 3.17 µM.
`COc1cc(Nc2c(C#N)cnc3c(-c4ccc(CN5CCOCC5)cc4)csc23)c(Cl)cc1Cl` [Example 143, 7-[(2,4-dichloro-5-methoxyphenyl)amino]-3-[4-(morpholin-4-ylmethyl)phenyl]thieno[3,2-b]pyridine-6-carbonitrile] registered a melting point of 184 to 185 °C. Further, the GI50 in data set [1] is over 10000 nM. Also, in data set [2], the IC50 is over 10000 nM. For the same compound, in data set [3] (Rattus norvegicus, Rat2, Table 3, at 10 μM, read-out: Src Cells IC50 μM or % inhib at 10 μM (% values)), the inhibition at 10 µM worked out at 61%. Besides, the “Src Cells IC50 μM or % inhib at 10 μM (% values)” value in data set [3] (Table 3, at 10 μM) stood at 45%.
On to `COc1cc(Nc2c(C#N)cnc3cc(-c4ccc(CN5CC[S+]([O-])CC5)cc4)sc23)c(Cl)cc1Cl` [Example 105, 7-[(2,4-dichloro-5-methoxyphenyl)amino]-2-{4-[(1-oxidothiomorpholin-4-yl)methyl]phenyl}thieno[3,2-b]pyridine-6-carbonitrile], for which the melting point was 242 to 245 °C. Besides, the GI50 in data set [1] is 222 nM and 235 nM. Moreover, in data set [2], the IC50 is 8.5 nM and 7 nM. Further, the IC50 in data set [3] (setting [4]) is 0.473 µM. In addition, the IC50 in data set [3] (setting [5]) came out at 0.55 µM.
As to `COc1cc(Nc2c(C#N)cnc3c(-c4ccc(CN(C)C)cc4)csc23)c(Cl)cc1Cl` [Example 141, 7-[(2,4-Dichloro-5-methoxyphenyl)amino]-3-{4-[(dimethylamino)methyl]phenyl}thieno[3,2-b]pyridine-6-carbonitrile], the melting point was 201 to 202 °C. For the same compound, the GI50 in data set [1] was 3180 nM and 4240 nM. Moreover, the IC50 in data set [2] is 4350 nM and 5040 nM. Besides, in data set [3] (setting [4]), the IC50 amounted to 4.52 µM. Further, the half-maximal inhibitory concentration (IC50) in data set [3] (setting [5]) was 4.11 µM.
The compound `COc1cc(Nc2c(C#N)cnc3cc(-c4ccc(CN5CCOCC5)cn4)sc23)c(Cl)cc1Cl` [Example 108, 7-[(2,4-dichloro-5-methoxyphenyl)amino]-2-[5-(morpholin-4-ylmethyl)pyridin-2-I]thieno[3,2-b]pyridine-6-carbonitrile] showed a melting point of 227 to 229 °C. Besides, the GI50 in data set [1] is 201 nM and 240 nM. In addition, the IC50 in data set [2] was 13 nM and 12 nM. For the same compound, in data set [3] (setting [4]), the IC50 amounted to 0.474 µM. Further, in data set [3] (setting [5]), the IC50 amounted to 0.319 µM.
Take `COc1cc(Nc2c(C#N)cnc3cc(-c4ccc(N(C)C)cc4)sc23)c(Cl)cc1Cl` [Example 73, 7-[(2,4-dichloro-5-methoxyphenyl)amino]-2-[4-(dimethylamino)phenyl]thieno[3,2-b]pyridine-6-carbonitrile]: the melting point is 255 to 258 °C. For the same compound, the GI50 in data set [1] was 1200 nM and 1100 nM. Further, the IC50 in data set [2] was 120 nM and 94 nM. Moreover, in data set [3] (setting [6]), the IC50 was found to be 1.4 µM. The IC50 in data set [3] (setting [7]) came out at 1.1 µM.
`CCCCNCc1ccc(-c2cc3ncc(C#N)c(Nc4cc(OC)c(Cl)cc4Cl)c3s2)cc1` [Example 104, 2-{4-[(butylamino)methyl]phenyl}-7-[(2,4-dichloro-5-methoxyphenyl)amino]thieno[3,2-b]pyridine-6-carbonitrile]: the melting point lay within 167 to 169 °C. Besides, in data set [1], the GI50 was 252 nM and 235 nM. For the same compound, the IC50 in data set [2] was 10 nM and 12 nM. For the same compound, the IC50 in data set [3] (setting [4]) was determined as 0.837 µM. In addition, in data set [3] (setting [5]), the IC50 is 0.939 µM.
